Data as given in PubChem BioAssay (NCI).
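All cell lines were grown in 96-well plates and treated with compound for 48 hours. TGI: concentration producing complete growth inhibition.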

Assays:
Assay in all cases: NCI anticancer screen, dose series, 48 h
RXF 393 renal = test system: RXF 393 renal
NCI-H522 lung = test system: NCI-H522 lung
SF-539 CNS = test system: SF-539 CNS
HOP-92 NSCLC = test system: HOP-92 NSCLC
U251 CNS = test system: U251 CNS
K-562 leukemia = test system: K-562 leukemia
SF-295 CNS = test system: SF-295 CNS
SK-MEL-5 melanoma = test system: SK-MEL-5 melanoma
HCT-116 colon = test system: HCT-116 colon
TK-10 renal = test system: TK-10 renal
HL-60(TB) leukemia = test system: HL-60(TB) leukemia
MALME-3M melanoma = test system: MALME-3M melanoma
KM12 colon = test system: KM12 colon
M14 melanoma = test system: M14 melanoma
NCI-H460 lung = test system: NCI-H460 lung
OVCAR-5 ovarian = test system: OVCAR-5 ovarian
DMS 273 small cell lung = test system: DMS 273 small cell lung
IGROV1 ovarian = test system: IGROV1 ovarian
UACC-257 melanoma = test system: UACC-257 melanoma
A549 NSCLC = test system: A549 NSCLC
HT29 colon = test system: HT29 colon
SNB-78 CNS = test system: SNB-78 CNS
LXFL 529 NSCLC = test system: LXFL 529 NSCLC
RPMI-8226 leukemia = test system: RPMI-8226 leukemia
UACC-62 melanoma = test system: UACC-62 melanoma
NCI-H23 lung = test system: NCI-H23 lung
DMS 114 small cell lung = test system: DMS 114 small cell lung
HOP-62 NSCLC = test system: HOP-62 NSCLC
SN12C renal = test system: SN12C renal
M19-MEL melanoma = test system: M19-MEL melanoma
MOLT-4 leukemia = test system: MOLT-4 leukemia
SNB-75 CNS = test system: SNB-75 CNS
OVCAR-8 ovarian = test system: OVCAR-8 ovarian
HOP-18 NSCLC = test system: HOP-18 NSCLC
COLO 205 colon = test system: COLO 205 colon
SR leukemia = test system: SR leukemia
A498 renal = test system: A498 renal
XF 498 CNS = test system: XF 498 CNS
KM20L2 colon = test system: KM20L2 colon
SK-MEL-2 melanoma = test system: SK-MEL-2 melanoma
OVCAR-4 ovarian = test system: OVCAR-4 ovarian
786-0 renal = test system: 786-0 renal
SK-OV-3 ovarian = test system: SK-OV-3 ovarian
DLD-1 colon = test system: DLD-1 colon
ACHN renal = test system: ACHN renal
SK-MEL-28 melanoma = test system: SK-MEL-28 melanoma
UO-31 renal = test system: UO-31 renal
EKVX NSCLC = test system: EKVX NSCLC
HCC-2998 colon = test system: HCC-2998 colon
HCT-15 colon = test system: HCT-15 colon
SNB-19 CNS = test system: SNB-19 CNS
SF-268 CNS = test system: SF-268 CNS
NCI-H226 lung = test system: NCI-H226 lung
CCRF-CEM leukemia = test system: CCRF-CEM leukemia
SW-620 colon = test system: SW-620 colon
CAKI-1 renal = test system: CAKI-1 renal
LOX IMVI melanoma = test system: LOX IMVI melanoma
OVCAR-3 ovarian = test system: OVCAR-3 ovarian

COC(=O)C1=C(C)C(=O)[C@H]2C(C(=O)OC)CCCC[C@@H]12 (stereo partly specified)
TGI (RXF 393 renal): > 100 µM | TGI (NCI-H522 lung): > 100 µM | TGI (SF-539 CNS): > 100 µM | TGI (HOP-92 NSCLC): > 100 µM | TGI (U251 CNS): > 100 µM | TGI (K-562 leukemia): > 100 µM | TGI (SF-295 CNS): > 100 µM | TGI (SK-MEL-5 melanoma): > 100 µM | TGI (HCT-116 colon): > 100 µM | TGI (TK-10 renal): > 100 µM | TGI (HL-60(TB) leukemia): > 100 µM | TGI (MALME-3M melanoma): > 100 µM | TGI (KM12 colon): > 100 µM | TGI (M14 melanoma): > 100 µM | TGI (NCI-H460 lung): > 100 µM | TGI (OVCAR-5 ovarian): > 100 µM | TGI (DMS 273 small cell lung): > 100 µM | TGI (IGROV1 ovarian): > 100 µM | TGI (UACC-257 melanoma): > 100 µM | TGI (A549 NSCLC): > 100 µM | TGI (HT29 colon): > 100 µM | TGI (SNB-78 CNS): > 100 µM | TGI (LXFL 529 NSCLC): > 100 µM | TGI (RPMI-8226 leukemia): > 100 µM | TGI (UACC-62 melanoma): > 100 µM | TGI (NCI-H23 lung): > 100 µM | TGI (DMS 114 small cell lung): 99 µM | TGI (HOP-62 NSCLC): > 100 µM | TGI (SN12C renal): > 100 µM | TGI (M19-MEL melanoma): > 100 µM | TGI (MOLT-4 leukemia): > 100 µM | TGI (SNB-75 CNS): > 100 µM | TGI (OVCAR-8 ovarian): > 100 µM | TGI (HOP-18 NSCLC): > 100 µM | TGI (COLO 205 colon): > 100 µM | TGI (SR leukemia): > 100 µM | TGI (A498 renal): > 100 µM | TGI (XF 498 CNS): > 100 µM | TGI (KM20L2 colon): > 100 µM | TGI (SK-MEL-2 melanoma): > 100 µM | TGI (OVCAR-4 ovarian): > 100 µM | TGI (786-0 renal): > 100 µM | TGI (SK-OV-3 ovarian): > 100 µM | TGI (DLD-1 colon): > 100 µM | TGI (ACHN renal): > 100 µM | TGI (SK-MEL-28 melanoma): > 100 µM | TGI (UO-31 renal): > 100 µM | TGI (EKVX NSCLC): > 100 µM | TGI (HCC-2998 colon): > 100 µM | TGI (HCT-15 colon): > 100 µM | TGI (SNB-19 CNS): > 100 µM | TGI (SF-268 CNS): > 100 µM | TGI (NCI-H226 lung): > 100 µM | TGI (CCRF-CEM leukemia): > 100 µM | TGI (SW-620 colon): > 100 µM | TGI (CAKI-1 renal): > 100 µM

O=C1C(=Cc2cccs2)C(=O)N(CCc2ccccc2)S(=O)(=O)N1CCc1ccccc1
TGI (RXF 393 renal): > 50 µM | TGI (NCI-H522 lung): > 50 µM | TGI (SF-539 CNS): > 50 µM | TGI (HOP-92 NSCLC): > 50 µM | TGI (LOX IMVI melanoma): > 50 µM | TGI (U251 CNS): 35.2 µM | TGI (K-562 leukemia): > 50 µM | TGI (SF-295 CNS): > 50 µM | TGI (SK-MEL-5 melanoma): > 50 µM | TGI (HCT-116 colon): 30.4 µM | TGI (TK-10 renal): > 50 µM | TGI (HL-60(TB) leukemia): 38.4 µM | TGI (MALME-3M melanoma): > 50 µM | TGI (KM12 colon): > 50 µM | TGI (M14 melanoma): > 50 µM | TGI (NCI-H460 lung): > 50 µM | TGI (OVCAR-5 ovarian): > 50 µM | TGI (DMS 273 small cell lung): > 50 µM | TGI (IGROV1 ovarian): 16.5 µM | TGI (UACC-257 melanoma): > 50 µM | TGI (A549 NSCLC): > 50 µM | TGI (HT29 colon): > 50 µM | TGI (SNB-78 CNS): > 50 µM | TGI (LXFL 529 NSCLC): > 50 µM | TGI (RPMI-8226 leukemia): > 50 µM | TGI (UACC-62 melanoma): > 50 µM | TGI (OVCAR-3 ovarian): > 50 µM | TGI (NCI-H23 lung): > 50 µM | TGI (DMS 114 small cell lung): 22.2 µM | TGI (SN12C renal): > 50 µM | TGI (M19-MEL melanoma): > 50 µM | TGI (MOLT-4 leukemia): > 50 µM | TGI (SNB-75 CNS): > 50 µM | TGI (OVCAR-8 ovarian): > 50 µM | TGI (HOP-18 NSCLC): > 50 µM | TGI (COLO 205 colon): > 50 µM | TGI (SR leukemia): > 50 µM | TGI (XF 498 CNS): > 50 µM | TGI (KM20L2 colon): > 50 µM | TGI (SK-MEL-2 melanoma): > 50 µM | TGI (OVCAR-4 ovarian): > 50 µM | TGI (786-0 renal): > 50 µM | TGI (SK-OV-3 ovarian): > 50 µM | TGI (DLD-1 colon): > 50 µM | TGI (ACHN renal): > 50 µM | TGI (SK-MEL-28 melanoma): > 50 µM | TGI (UO-31 renal): > 50 µM | TGI (EKVX NSCLC): > 50 µM | TGI (HCC-2998 colon): > 50 µM | TGI (HCT-15 colon): > 50 µM | TGI (SNB-19 CNS): > 50 µM | TGI (SF-268 CNS): > 50 µM | TGI (NCI-H226 lung): > 50 µM | TGI (CCRF-CEM leukemia): > 50 µM | TGI (SW-620 colon): > 50 µM
